Drawing on ChEMBL document CHEMBL1141894, “Synthesis and biological properties of novel sphingosine derivatives” (Bioorg Med Chem Lett, 2005), this text covers IC50 for eight molecules.

For the assay, the system named is HL-60. Briefly: Inhibitory concentration against [Ca2+] ion increase in HL60 cell induced by natural sphingosine-1-phosphate. Format: functional, cell-based. Conditions: Homo sapiens.

Each structure is given as a SMILES string.

A word on the IC50: it is the concentration that inhibits the measured activity by half. Lower therefore signals greater potency. In the case of `N[C@@H](COP(=O)(O)O)[C@@H](O)/C=C/c1ccccc1`, the IC50 stood at 37 nM.

Molecule `CCCCCCCCCCCCC/C=C/[C@H](O)[C@@H](N)COP(=O)(O)O` came in with an IC50 of 31 nM.

Regarding `CSc1ccc([C@H](O)[C@@H](N)CBr)cc1`, the IC50 is 18 nM.

`N[C@@H](COP(=O)(O)O)[C@@H](O)c1ccccc1` showed an IC50 of 179 nM.

`N[C@@H](COP(=O)(O)O)[C@@H](O)c1ccc([N+](=O)[O-])cc1` came in with an IC50 of 56 nM.

As for `CCCCCCCCCC/C=C/[C@H](O)[C@@H](N)COP(=O)(O)O`, 15 nM corresponded to half-maximal inhibition (IC50).

In turn, `CSc1ccc([C@H](O)[C@@H](N)COP(=O)(O)O)cc1` came in with a half-maximal inhibitory concentration (IC50) of 15 nM.

For `N[C@@H](CBr)[C@@H](O)c1ccccc1`, it took 71 nM to reach half-maximal inhibition (IC50).
